We go through one compound from patent US9683014B2, “Dipeptide mimetics of NGF and BDNF neurotrophins” (UCHREZHDENIE ROSSIISKOI AKADEMII MEDITSYNSKIKH NAUK …, priority 2009, dated 2017).

The target in one test is T1, tyrosine kinase A (TrkA) (Mus musculus, UniProt Q3UFB7).
T1 construct: phosphorylation of tyrosine kinase A in cultured hippocampal neuronal cell line HT22; endogenous in cells; host or cells: HT-22 hippocampal neuronal cell line
Description: Tyrosine kinase A phosphorylation in HT-22 cells (Western blot). Conditions: first minute of exposure. Format: cell-based. Here is the method:
(§1) The amount of Hsp70, Hsp32 and pTrkA was determined in the cytoplasmic fraction of HT-22 neuronal cells. For heat shock proteins, a test compound was added to the culture 24 hours prior to testing, before the cells were washed off the culture liquid with PBS. For pTrkA, a test compound was added to the culture immediately prior to the cell lysis just for 1 or 2 min, before the cells were washed off the culture liquid with PBS. Then the cells were mixed with the lysis buffer (50 mM Tris-HCl, 5 mM EDTA, 1 mM DTT, 1% Triton X-100, pH 7.5) at 4° C. and lysed for 5 min, then scraped off, transferred into a 1.5 ml centrifuge tube and centrifuged at 13000 rpm and 4° C. for 10 min. The supernatant containing cytosolic proteins was assayed by electrophoresis and immunoblotting. Proteins were separated on a 10% polyacrylamide gel (PAAG) and transferred from PAAG onto a PVDF membrane by electroelution for 45 min. Western blots were pre-incubated for 1 h in a TBST solution containing 1% Tween-20 and supplemented with 5% (w/v) skim milk. Western blots were then incubated with the primary polyclonal anti-Hsp32 antibody diluted 1:1000 or primary monoclonal anti-Hsp70 antibody diluted 1:1000 or primary monoclonal anti-phosphorylated tyrosine kinase A antibody diluted 1:1000 for 1 hour. Then the blots were washed and incubated with a secondary antibody conjugated to horseradish peroxidase (diluted 1:2000) for 1 hour. The detection of Hsp70, Hsp32 and pTrkA was carried out by the ECL reaction on a Kodak film.
A general note: Immunoblotting shows a protein as a band on a membrane.

Another test relates to rats. Here is the method: The experiments were conducted on white male outbred rats weighing 250-280 g. Haloperidol (1.0 mg/kg i.p.), a D1/D2 dopamine receptor blocker, was used to induce catalepsy. The intensity of catalepsy was assessed by measuring the time during which the animal maintained an assumed posture. The measurements were performed 60 minutes after the haloperidol injection. The test compound was administered intraperitoneally at selected doses (0.01, 0.1, 1.0 and 5.0 mg/kg) 24 hours prior to haloperidol. Control animals were treated with an equivalent volume of distilled water. Statistical data treatment was carried out using the exact Fisher test.

In the next test the test system is Hsp32. Description: Western blot of Hsp32 in HT-22 cells. It is filed as cell-based, mouse. Conditions: 24 h after addition; GK-1, GK-2 10^−8 and 10^−5 M; GK-3 10^−6 M; GK-4 10^−7 M; GK-5 10^−6 M. The method, then: as §1
Test [1] has as its system rats with photothrombosis of the prefrontal cortex. Here is the method:
Male outbred rats weighing 180-200 g were used.
Experimental stages: surgery for photothrombosis, evaluation of motor activity (before and at 9 days after photothrombosis); PAR conditioning and the retention test at 9 days after photothrombosis; animal sacrifice, excision and fixation of the brain; morphologic examination and ischemic zone volume calculation.
The test substance was administered intraperitoneally at a dose of 1 mg/kg using the following regimen: at 1 h after surgery, at 24 h after the first administration, at 4 days and 6 days after the first administration.
PAR conditioning was performed according to the following protocol: The latency time (LT) was defined as the time between the start of testing and the moment of crossing the hole dividing the light and dark compartments. On day 1 the rat was placed in the light compartment (a 100 W light bulb) and, having explored it for a certain time (LT to learning), crossed into the dark compartment. Thereafter the door leading to this compartment was closed, and the rat was allowed to stay there for 5 min. One hour later the procedure was repeated by taking the rat out of the dark compartment. On the next day this procedure was repeated twice with a 1 h interval. During the second visit by the rat to the dark compartment the door was closed and electric current was passed through the metal bars in the floor (1.3 mA, 50 Hz, 5 sec). The PAR conditioning was considered established when the LT was at least 300 sec. Animals with lower LT values were excluded from the experiments.
A bilateral focal ischemic infarction of the prefrontal cortex of the rat brain (the Fr1 and Fr2 fields according to the atlas of Paxinos and Watson, 1986) was produced by the photoinduced thrombosis method (Watson et al., 1985). Animals were anesthetized with chloral hydrate (300 mg/kg i.p.). The photosensitive dye Bengal red (Sigma Chemical Co.) was injected into the jugular vein (3% solution, 40 mg/kg). The animal's head was clamped in the stereotaxis device, and the periosteum was removed after a longitudinal incision of the skin.
A light guide (the output light beam diameter 3 mm) was placed at a distance of 1 mm from the skull surface using the following coordinates: 2.00 mm rostral of the bregma and 2.00 mm lateral of the sagittal suture. Cold light illumination (a xenon lamp source, 25 V, 250 W) was carried out for 15 min at either side. Sham-operated animals were subjected to the same procedure except for the Bengal red injection. To assess their functional status, the animals were evaluated for their motor activity (MA) in a RODEO-1 automatic unit with an observation time of 5 min. The MA was analyzed before and at 9 days after the photothrombosis of the prefrontal cortex.

Test [2] concerns rats with ischemic cerebral infarction.

Read-outs that look alike come from different tables or passages of the source. Marks after values point to notes of the source that are not given here.

T1 sequence (Q3UFB7 34-799): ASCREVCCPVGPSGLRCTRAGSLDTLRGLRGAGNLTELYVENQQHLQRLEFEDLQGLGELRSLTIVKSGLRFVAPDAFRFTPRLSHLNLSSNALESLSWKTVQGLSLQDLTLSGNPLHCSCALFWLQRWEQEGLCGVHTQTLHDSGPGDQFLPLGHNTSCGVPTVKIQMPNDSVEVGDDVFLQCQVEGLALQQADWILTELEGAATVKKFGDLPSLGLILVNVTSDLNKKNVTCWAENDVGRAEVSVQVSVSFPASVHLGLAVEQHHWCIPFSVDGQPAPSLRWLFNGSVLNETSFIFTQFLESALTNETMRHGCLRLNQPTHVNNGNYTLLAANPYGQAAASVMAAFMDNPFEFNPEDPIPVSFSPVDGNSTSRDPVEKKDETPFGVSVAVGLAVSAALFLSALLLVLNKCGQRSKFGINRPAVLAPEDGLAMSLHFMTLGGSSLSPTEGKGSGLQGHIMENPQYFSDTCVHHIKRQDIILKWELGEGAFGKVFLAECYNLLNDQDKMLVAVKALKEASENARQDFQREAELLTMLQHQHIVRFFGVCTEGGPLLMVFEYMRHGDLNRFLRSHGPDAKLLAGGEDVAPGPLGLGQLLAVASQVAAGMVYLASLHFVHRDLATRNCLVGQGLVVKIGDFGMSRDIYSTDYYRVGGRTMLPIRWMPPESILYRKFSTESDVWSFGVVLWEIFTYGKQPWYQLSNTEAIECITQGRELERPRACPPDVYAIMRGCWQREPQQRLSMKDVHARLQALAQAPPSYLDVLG

With `NCCCC[C@H](NC(=O)[C@H](CCC(=O)O)NC(=O)CCC(=O)O)C(=O)NCCCCCCNC(=O)[C@H](CCCCN)NC(=O)[C@H](CCC(=O)O)NC(=O)CCC(=O)O` [GK-2, bis-(N-monosuccinyl-glutamyl-lysine) hexamethylenediamide], at tyrosine kinase A (TrkA), the “level of phosphorylated tyrosine kinase A” value was “increased”. Besides, the “Intensity of catalepsy (% of control)” value in the test with rats (0.01 mg/kg i.p. 24 h prior to haloperidol 1.0 mg/kg i.p., measured 60 min after haloperidol) was 14* % of control; with rats (0.1 mg/kg i.p. 24 h prior to haloperidol) it was 98 % of control; with rats (1.0 mg/kg i.p. 24 h prior to haloperidol) it was 25* % of control; in the test on rats (5.0 mg/kg i.p. 24 h prior to haloperidol) it was 13* % of control. For the same compound, in the test on Hsp32, the “amount of Hsp32” value is “increase”. Moreover, in test [1] (1 mg/kg i.p.), the “retention of the PAR” value came to 100%. Also, the “latency time of PAR, individual rats” value in test [1] (1 mg/kg i.p. at 1 h, 24 h, 4 and 6 days, at 8 days after photothrombosis, saline 20-105, sham 300) was found to be 300 s. Also, the “latency time of PAR, group mean” value in test [1] (1 mg/kg i.p., n = 9, saline 59.2, sham 300) is 300 s. In addition, the “latency time of PAR” value in test [1] (1 mg/kg i.p., photothrombosis alone 59.2 sec) was “at least 300 sec”. Besides, in test [2] (1 mg/kg i.p. at 1, 24, 48 h post-ischemia, NMRT day 7, control group 46%), the “animals with swelling of the affected hemisphere” value turned out to be 9%. In addition, the mortality rate in test [2] (1 mg/kg i.p. at 1, 24, 48 h post-ischemia, control also 3) worked out at 3 animals. Also, the ischemic lesion volume in test [2] (1 mg/kg i.p. x3, NMRT day 7, n=12, saline control 266±20) is listed as 222±16 mm^3. The “reduction of lesion volume” value in test [2] (1 mg/kg i.p. x3, versus saline control) was determined as 16.5%.
